Reference: patent US10858479B2, “Y-type discrete polyethylene glycol derivative and preparation method thereof” (JenKem Technology Co., Ltd. (Beijing), priority 2015, dated 2020)
Like-named read-outs stand apart in the source and are kept apart here.

How the values were obtained:
[1] = Comparison test of dispersibility of cholesterol and cholesterol derivatives in water; type: physicochemical; details: 20 mg in 50 mL water, 20° C. water bath, FIG. 7
[2] = Comparison test of solubility of derivatives in water
Description: 20.0 mg cholesterol derivative of (l) prepared in Example 7 was dispersed in 50 mL water, 5 mL was taken out therefrom and added with 1.5 mL water, the resulting mixture was placed in a 20° C. water bath, and shaken vigorously for 30 s every 5 min.
24.2 mg cholesterol derivative of mEG7-OH prepared in Example 8 was dispersed in 50 mL of water, 5 mL was taken out therefrom and added with 5 mL water, the resulting mixture was shaken vigorously for 30 s every 5 min.
111.0 mg the hexadecanol derivative of (1) prepared in Example 7 was dispersed in 25 μL of water and shaken vigorously for 30 s every 5 min.
112.9 mg the hexadecanol derivative of mEG7-OH prepared in Example 8 was dispersed in 50 μL of water and shaken vigorously for 30 s every 5 min.
101.3 mg the menthol derivative of mEG7-OH prepared in Example 8 was dispersed in 50 μL of water and vigorously shaken for 30 s every 5 min. After 30 min, the solution was turbid; another 50 μL of water was added, the resulting mixture was vigorously shaken for 30 s every 5 min.

SMILES | disperse state in water [1] | solubility [2] | solubility ([2]; listed as Cholesterol) | solubility ([2]; listed as Hexadecanol) | solubility ([2]; listed as Menthol)
COCCOCCOCCOCCOCCOCCOCCOC(=O)O[C@H]1CC[C@@]2(C)C(=CC[C@H]3[C@@H]4CC[C@H]([C@H](C)CCCC(C)C)[C@@]4(C)CC[C@@H]32)C1 [cholesterol derivative of mEG7-OH] | white emulsion |  |  |  | 
CC(C)CCC[C@@H](C)[C@H]1CC[C@H]2[C@@H]3CC=C4C[C@@H](O)CC[C@]4(C)[C@H]3CC[C@]12C [cholesterol] | completely insoluble | < 0.2 mg/100 g H2O | <0.2 mg/100 g H2O |  | 
CCCCCCCCCCCCCCCCO [hexadecanol] |  | < 1 mg/100 g H2O |  | <1 mg/100 g H2O | 
CC1CCC(C(C)C)C(O)C1 (centres unmarked) [menthol] |  | < 100 mg/100 g H2O |  |  | <100 mg/100 g H2O
